Results on 42 compounds are retold here after US8546442B2, “Pyrazolopiperidine compounds as CCR1 receptor antagonists” (Boehringer Ingelheim International GmbH, priority 2010, dated 2013).

The term IC50 denotes the point on the concentration scale where inhibition reaches its midpoint.

For test [1], the target named is T1, CCR1 (Homo sapiens, UniProt P32246).
T1 sequence (P32246 1-355): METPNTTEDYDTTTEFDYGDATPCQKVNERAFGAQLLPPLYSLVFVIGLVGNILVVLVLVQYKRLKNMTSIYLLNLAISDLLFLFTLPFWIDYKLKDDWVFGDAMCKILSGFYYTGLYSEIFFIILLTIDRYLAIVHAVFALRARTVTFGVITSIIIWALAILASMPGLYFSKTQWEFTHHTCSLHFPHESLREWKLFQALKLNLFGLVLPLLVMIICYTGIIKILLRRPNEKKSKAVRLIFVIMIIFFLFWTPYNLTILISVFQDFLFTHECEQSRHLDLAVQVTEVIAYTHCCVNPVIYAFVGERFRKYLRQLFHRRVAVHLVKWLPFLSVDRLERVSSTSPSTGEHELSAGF
The experiment in a line: calcium flux in CCR1 transfected cells, Method A (Fluo-4 NW, FLIPR TETRA). Conditions: cells stably expressing recombinant CCR1 and G-alpha-16, MIP-1 alpha at EC80. It counts as cell-based. The protocol:
(§1) Compounds are assessed for the ability to block the interaction of CCR1 and MIP-1α in a functional cellular assay measuring calcium flux in CCR1 transfected cells.
Method A: Non-adherent cells purchased from Chemicon Corporation (HTS005C), stably expressing recombinant CCR1 and G-alpha-16 are grown in RPMI 1640 medium (Mediatech 10-080-CM) supplemented with 10% heat-inactivated FBS, 0.4 mg/mL Geneticin and penicillin/streptomycin. On the day of the assay, the cells are transferred to a beaker and dye-loaded in bulk using a Fluo-4 NW Calcium Assay Kit with probenecid (Invitrogen F36205) at 0.8E6 cells/mL for 1 hour at room temperature. After 1 hour, they are seeded in a 384-well tissue culture-treated plate at a density of 20,000 cells/well. Appropriately diluted test compound is added to the well to achieve a top concentration of 3,000 nM (diluted 4-fold with 10 doses total). The final concentration of DMSO is 1%. The buffer is HBSS (Invitrogen 14025) with 20 mM HEPES at pH 7.4. The cells are allowed to incubate 1 hour in the dark at room temperature. The plates are transferred to the FLIPR TETRA where MIP-1 alpha in 1% BSA is added at the EC80 final concentration. Wells+/−MIP-1 alpha containing diluted DMSO instead of compound serve as the controls. Intracellular calcium flux is recorded on the FLIPR TETRA, using excitation at 470/495 nm and emission at 515/575 nm. Data are analyzed using Activity Base software.
A general note: Calcium assays in cells follow changes in intracellular calcium, usually with a dye or a luminescent sensor.

Test [2] concerns the target T1, CCR1. As to the kind of experiment: calcium flux in CCR1 transfected cells, Method B (Calcium 4 dye, HAMAMATSU FDSS6000). It counts as cell-based. Conditions: cells stably expressing recombinant CCR1 and G-alpha-16, MIP-1alpha at EC80. As to the method:
as §1
Method B: Non-adherent cells purchased from Chemicon Corporation (HTS005C), stably expressing recombinant CCR1 and G-alpha-16 are grown in RPMI 1640 medium (Mediatech 10-080-CM) supplemented with 10% FBS, 0.4 mg/mL Geneticin and penicillin/streptomycin. On the day of the assay, the cells are loaded with Calcium 4 dye (Molecular Devices R7448) with Probenecid (Invitrogen P346400) at 8E5 cells/mL for 1 hour at room temperature. After 1 hour, they are seeded in a 384-well tissue culture-treated plate at a density of 20,000 cells/well. Appropriately diluted test compound is added to the well to achieve a top concentration of 3,000 nM (diluted 4-fold with 10 doses total). The final concentration of DMSO is 1%. The buffer is HBSS (Invitrogen 14025) with 20 mM HEPES at pH 7.4. The cells incubate 30 minutes at 37 C and then 30 minutes at room temperature. The plates are transferred to the HAMAMATSU FDSS6000 where MIP-1alpha in 1% BSA is added at the EC80 final concentration. All plates must be read within 4 hours of the start of dye-loading. Wells+/−MIP-1alpha containing diluted DMSO instead of compound serve as the controls. Data are analyzed using Activity Base software.

The structures appear in SMILES notation.

With `CC[C@H](NC(=O)N1CCCc2c1cnn2-c1ccc(F)cc1)c1cncc(S(C)(=O)=O)c1` [Example 45], the IC50 on CCR1 [1] worked out at 1 nM; at CCR1 [2] it was 0.6 nM. In the case of `CCC[C@H](NC(=O)N1CCCc2c1cnn2-c1ccc(F)cc1)c1ccc(S(C)(=O)=O)nc1` [Example 50], the results for the half-maximal inhibitory concentration (IC50) on CCR1 [1] and at CCR1 [2] were 4 nM and 0.9 nM, respectively. In the same order, the values of `CCCC(NC(=O)N1CCCc2c1cnn2-c1ccc(F)cc1)c1ccc(S(C)(=O)=O)nc1` (stereo not drawn) [Example 36] are 3 nM and 3 nM.

For the compound `CCC[C@H](NC(=O)N1c2cnn(-c3ccc(F)cc3)c2CCC1C(F)(F)F)c1cncc(S(C)(=O)=O)c1` (stereo partly drawn) [Example 61], the IC50 at CCR1 [1] was found to be 12 nM; at CCR1 [2], 8 nM. With `C[C@@H](CO)NS(=O)(=O)c1ccc(CNC(=O)N2CCCc3c2cnn3-c2ccc(F)cc2)cc1` [Example 35], the IC50 at CCR1 [1] turned out to be 4 nM. In the case of `CC[C@H](NC(=O)N1CCCc2c1cnn2-c1ccc(F)cc1)c1ccc(Br)nc1` [Example 48, 1-(4-Fluorophenyl)-1,5,6,7-tetrahydro-pyrazolo[4,3-b]pyridine-4-carboxylic acid [(S)-1-(6-bromo-pyridin-3-yl)-propyl]-amide], the half-inhibitory concentration (IC50) on CCR1 [1] is 19 nM; on CCR1 [2], 2 nM. In the same order, the values of `O=C(NCc1ccc(S(=O)(=O)NC2CCOCC2)cc1)N1CCCc2c1cnn2-c1ccc(F)cc1` [Example 28, 1-(4-Fluorophenyl)-1,5,6,7-tetrahydro-pyrazolo[4,3-b]pyridine-4-carboxylic acid 4-(tetrahydro-pyran-4-ylsulfamoyl)-benzylamide] are 40 nM and 10 nM.

In the case of `O=C(NCc1cc(Cl)cc(Cl)c1)N1CCCc2c1cnn2-c1ccc(F)cc1` [Example 40], the IC50 was 33 nM at CCR1 [1] and 3 nM on CCR1 [2]. On the same counts, the results for `CC[C@H](NC(=O)N1CCCc2c1cnn2-c1ccc(F)cc1)c1ccc(S(C)(=O)=O)nc1` [Example 51] are 14 nM and 3 nM.

Consider `CCC[C@H](NC(=O)N1CCCc2c1cnn2-c1ccc(F)cc1)c1ccnc(S(C)(=O)=O)c1` [Example 60], for which the results for the 50% inhibitory concentration (IC50) at CCR1 [1] and at CCR1 [2] were 0.5 nM and 0.3 nM, respectively. In the same order, the values of `CNS(=O)(=O)c1ccc(CNC(=O)N2CCCc3c2cnn3-c2ccc(F)cc2)c(F)c1` [Example 38] are 11 nM and 2 nM.

Consider `CS(=O)(=O)c1cccc(CNC(=O)N2CCCc3c2cnn3-c2ccc(F)cc2)c1` [Example 23], for which the 50% inhibitory concentration (IC50) at CCR1 [1] came to 31 nM; at CCR1 [2] it was 22 nM.

`CCC[C@H](NC(=O)N1CCCc2c1cnn2-c1ccc(F)cc1)c1cncc(S(C)(=O)=O)c1` [Example 47]: the IC50 was determined as 0.4 nM on CCR1 [1] and 0.2 nM on CCR1 [2].

Turning to `CC[C@H](NC(=O)N1c2cnn(-c3ccc(F)cc3)c2CCC1C)c1ccnc(S(C)(=O)=O)c1` (stereo partly drawn) [Example 55], the 50% inhibitory concentration (IC50) amounted to 13 nM on CCR1 [1] and 12 nM at CCR1 [2].

For `CNS(=O)(=O)c1ccc(CNC(=O)N2CCCc3c2cnn3-c2ccc(F)cc2)cc1` [Example 22], the half-maximal inhibitory concentration (IC50) was found to be 22 nM on CCR1 [1] and 5 nM at CCR1 [2]. Consider `CN(C)S(=O)(=O)c1cccc(CNC(=O)N2CCCc3c2cnn3-c2ccc(F)cc2)c1` [Example 33], for which, on CCR1 [1], the half-maximal inhibitory concentration (IC50) came to 19 nM. In the case of `CCCC(NC(=O)N1CCCc2c1cnn2-c1ccc(F)cc1)c1cncc(Br)c1` (stereo not drawn) [Example 39], the IC50 at CCR1 [1] was found to be 0.2 nM; on CCR1 [2] it was 0.4 nM. Turning to `CCCC(NC(=O)N1CCCc2c1cnn2-c1ccc(F)cc1)c1cncc(S(C)(=O)=O)c1` (stereo not drawn) [Example 24], the IC50 on CCR1 [1] came out at 0.6 nM. Same read-out and setting: in the case of `C[C@H](CO)NS(=O)(=O)c1ccc(CNC(=O)N2CCCc3c2cnn3-c2ccc(F)cc2)cc1` [Example 34] it was 20 nM. In the case of `CCC[C@H](NC(=O)N1CCCc2c1c(C)nn2-c1ccc(F)cc1)c1ccnc(S(C)(=O)=O)c1` [Example 98], on CCR1 [2], the IC50 came to 1570 nM. Same read-out and setting: in the case of `CCC[C@H](NC(=O)N1c2cnn(-c3ccc(F)cc3)c2CCC1C(F)(F)F)c1ccc(S(C)(=O)=O)c(O)c1` (stereo partly drawn) [Example 106] it was 11 nM; in that of `CCC[C@H](NC(=O)N1c2cnn(-c3ccc(F)cc3)c2CCC1C)c1ccnc(S(C)(=O)=O)c1` (single isomer, unassigned) [Example 80], 31 nM; in that of `CC[C@H](NC(=O)N1c2cnn(-c3ccc(F)cc3)c2CCC1C(F)(F)F)c1ccc(S(C)(=O)=O)c(OC)c1` (stereo partly drawn) [Example 84], 14 nM. The same measure, in the same setting: under `CCC[C@H](NC(=O)N1c2cnn(-c3ccc(F)cc3)c2CCC1C)c1ccnc(S(C)(=O)=O)c1` (stereo partly drawn) [Example 70] stands 5 nM; under `O=C(NCc1ccc(Cl)cc1Cl)N1CCCc2c1cnn2-c1ccc(F)cc1` [Example 16], 12 nM; under `CCC[C@H](NC(=O)N1CC(C(=O)NC)Cc2c1cnn2-c1ccc(F)cc1)c1ccnc(S(C)(=O)=O)c1` (stereo partly drawn) [Example 116], 1 nM. Consider `CCC[C@H](NC(=O)N1c2cnn(-c3ccc(F)cc3)c2CC[C@@H]1C)c1cncc(S(C)(=O)=O)c1` [Example 111], for which, on CCR1 [2], the IC50 turned out to be 22 nM. Same read-out and setting: in the case of `COc1ccc([C@H](C)NC(=O)N2CCCc3c2cnn3-c2ccc(F)cc2)cc1` [Example 14] it was 102 nM; in that of `CCC[C@H](NC(=O)N1c2cnn(-c3ccc(F)cc3)c2CCC1C(F)(F)F)c1ccc(Br)c(OC)c1` (stereo partly drawn) [Example 104], 57 nM; in that of `CCC[C@H](NC(=O)N1c2cnn(-c3ccc(F)cc3)c2CCC1C(F)(F)F)c1ccc(OC)c(Br)c1` (stereo partly drawn) [Example 97], 5 nM. Still for that read-out and setting: under `CS(=O)(=O)c1cc(C2(NC(=O)N3c4cnn(-c5ccc(F)cc5)c4CCC3C(F)(F)F)CC2)ccn1` (stereo not drawn) [Example 64] stands 1850 nM; under `O=C(NCCc1ccccc1)N1CCCc2c1cnn2-c1ccc(F)cc1` [Example 3], 126 nM; under `CCC[C@H](NC(=O)N1CCCc2c1cnn2C1CCCCC1)c1ccnc(S(C)(=O)=O)c1` [Example 65], 330 nM.

As for `C[C@H](NC(=O)N1CCCc2c1cnn2-c1ccc(F)cc1)c1cncc(S(C)(=O)=O)c1` [Example 44, 1-(4-Fluorophenyl)-1,5,6,7-tetrahydro-pyrazolo[4,3-b]pyridine-4-carboxylic acid [(S)-1-(5-methanesulfonyl-pyridin-3-yl)-ethyl]-amide], the 50% inhibitory concentration (IC50) at CCR1 [2] was 18 nM. On the same count and under the same terms, under `CC[C@H](NC(=O)N1c2cnn(-c3ccc(F)cc3)c2CC1C)c1cccc(S(C)(=O)=O)c1` (stereo partly drawn) [Example 109] stands 11 nM; under `COc1ccccc1CNC(=O)N1CCCc2c1cnn2-c1ccc(F)cc1` [Example 11], 610 nM; under `CCC[C@H](NC(=O)N1CCc2c1cnn2-c1ccc(F)cc1)c1ccnc(C)c1` [Example 88], 52 nM. Still for that read-out and setting: in the case of `CS(=O)(=O)c1ccc(CNC(=O)N2CCCc3c2cnn3-c2ccc(F)cc2)cn1` [Example 30] it was 94 nM; in that of `O=C(NCc1ccc(F)cc1)N1CCCc2c1cnn2-c1ccc(F)cc1` [Example 7], 183 nM; in that of `CC1CCc2c(cnn2-c2ccc(F)cc2)N1C(=O)N[C@@H](C)c1ccnc(S(C)(=O)=O)c1` (stereo partly drawn) [Example 54], 684 nM. Still for that read-out and setting: under `CCC[C@H](NC(=O)N1c2cnn(-c3ccc(F)cc3)c2CCC1C(F)(F)F)c1ccc(Br)cc1F` (stereo partly drawn) [Example 68] stands 205 nM; under `CC1CCc2c(cnn2-c2ccc(F)cc2)N1C(=O)NCc1ccnc(S(C)(=O)=O)c1` (stereo not drawn) [Example 53], 1280 nM.
